system: HeLa; assay: Cytotoxicity against human HeLa cells after 72 hrs by MTT assay; type: functional, cell-based

First: COC(=O)[C@H](O)C/C=C\C/C=C/C[C@@H]1O[C@@]23C[C@@H]1OC(=O)C[C@H]1CCC[C@@H](C[C@@H](O)C[C@H](O)C[C@H]4O[C@]5(C=C[C@@H]4C)CC[C@H](OC)[C@H](O5)[C@@H](O)[C@@H](O)[C@@H](C)CC[C@H]4O[C@@](CC[C@@H]2C)(C[C@@H](OC)[C@@H]4Cl)O3)O1 [SPIRASTRELLOLIDE A METHYL ESTER]
Second: CO[C@H]1CC[C@]23C=C[C@H](C)[C@@H](C[C@@H](O)C[C@H](O)C[C@@H]4CCC[C@H](CC(=O)O[C@H]5C[C@@]6(O[C@H]5C/C=C/C/C=C\C[C@@H](O)C(=O)O)O[C@]5(CC[C@@H]6C)C[C@@H](OC)[C@H](Cl)[C@@H](CC[C@H](C)[C@H](O)[C@H](O)[C@H]1O2)O5)O4)O3 [SPIRASTRELLOLIDE A]
The IC50 of the first is 1.5-fold higher: 30 nM for the first, 20 nM for the second.

Compared with `COC(=O)[C@H](O)C/C=C\C/C=C/C[C@@H]1O[C@@]23C[C@@H]1OC(=O)C[C@H]1CCC[C@@H](C[C@@H](O)C[C@H](O)C[C@H]4O[C@@]5(CC[C@H](OC)[C@H](O5)[C@@H](O)[C@@H](O)[C@@H](C)CC[C@@H]5C[C@H](OC)C[C@](CC[C@@H]2C)(O5)O3)CC[C@@H]4C)O1` [SPIRASTRELLOLIDE B METHYL ESTER], `CO[C@H]1C[C@H]2CC[C@H](C)[C@H](O)[C@H](O)[C@H]3O[C@]4(CC[C@@H]3OC)CC[C@H](C)[C@@H](C[C@@H](O)C[C@H](O)C[C@@H]3CCC[C@H](CC(=O)O[C@H]5C[C@@]6(O[C@H]5C/C=C/C/C=C\C[C@@H](O)C(=O)O)O[C@](CC[C@@H]6C)(C1)O2)O3)O4` [SPIRASTRELLOLIDE B] is 1.8-fold lower in IC50: 70 nM for the first, 40 nM for the second.
